For this assay, the target named is full-length human HPK1 (MAP4K1) (Homo sapiens (Human), UniProt Q92918). The experiment in a line: HPK1 Kinase Assay (Biochemical Assay), ADP-Glo. The conditions noted are these: GST-HPK1 3.2 nM, 10 μM ATP, MBP substrate, read-out: HPK1 enzymatic IC50. The source says: HPK1 Kinase Assay (Biochemical Assay).
A recombinant fusion protein consisting of full-length human HPK1 (MAP4K1) with an N-terminal Glutatione S-transferase (GST) tag was produced in insect cells Sf21 using the baculovirus expression system. GST-HPK1 protein was purified from cell lysates by glutathione Sepharose affinity chromatography. The assay is run in three continuous steps: 1) the HPK1 enzymatic kinase reaction, 2) an ATP depletion, and 3) the ADP detection, the steps 2 and 3 are performed with ADP-Glo™ Kinase Assay kit from Promega (V9101). Test compounds were prepared by 10-point serial dilution in dimethyl sulfoxide (DMSO) and 100 nL of each dilution was spotted onto a 384-well Optiplate (Perkin Elmer and Cat #6007299) by Labcyte Echo. 5 μL kinase reaction buffer (0.02% Brij-35, 2 mM DTT, 50 mM HEPES pH 7.5, MgCl2 10 mM, BSA 0.01% and O-glycerophosphate 12.5 mM) containing HPK1 (3.2 nM) enzyme was transferred to each well and incubated for 15 minutes at room temperature at 60% humidity. The enzymatic reaction was started by adding 5 μl of Start-Mix (10 μM ATP and 3.235 μM MBP). After 120 minutes, the reaction was stopped by adding 5 μL of ADP-Glo reagent (Promega, V9101) and incubating for 40 min. in the dark at 23° C. To determine the level of ADP, 10 μl ADP-Glo Detection solution was added and incubated for 1 hour at 23° C. in the dark. The plate was transferred to a Perkin Elmer EnVision (2104 Multilabel Reader) for luminescence detection and percent inhibition activity and IC50 value were determined using Genedata Screener.
(In general: ADP-Glo first removes unused ATP, then detects ADP through luciferase.)

Molecules are shown by their SMILES.

Sequence of full-length human HPK1 (MAP4K1) (Q92918 whole entry, the tested form may be a part): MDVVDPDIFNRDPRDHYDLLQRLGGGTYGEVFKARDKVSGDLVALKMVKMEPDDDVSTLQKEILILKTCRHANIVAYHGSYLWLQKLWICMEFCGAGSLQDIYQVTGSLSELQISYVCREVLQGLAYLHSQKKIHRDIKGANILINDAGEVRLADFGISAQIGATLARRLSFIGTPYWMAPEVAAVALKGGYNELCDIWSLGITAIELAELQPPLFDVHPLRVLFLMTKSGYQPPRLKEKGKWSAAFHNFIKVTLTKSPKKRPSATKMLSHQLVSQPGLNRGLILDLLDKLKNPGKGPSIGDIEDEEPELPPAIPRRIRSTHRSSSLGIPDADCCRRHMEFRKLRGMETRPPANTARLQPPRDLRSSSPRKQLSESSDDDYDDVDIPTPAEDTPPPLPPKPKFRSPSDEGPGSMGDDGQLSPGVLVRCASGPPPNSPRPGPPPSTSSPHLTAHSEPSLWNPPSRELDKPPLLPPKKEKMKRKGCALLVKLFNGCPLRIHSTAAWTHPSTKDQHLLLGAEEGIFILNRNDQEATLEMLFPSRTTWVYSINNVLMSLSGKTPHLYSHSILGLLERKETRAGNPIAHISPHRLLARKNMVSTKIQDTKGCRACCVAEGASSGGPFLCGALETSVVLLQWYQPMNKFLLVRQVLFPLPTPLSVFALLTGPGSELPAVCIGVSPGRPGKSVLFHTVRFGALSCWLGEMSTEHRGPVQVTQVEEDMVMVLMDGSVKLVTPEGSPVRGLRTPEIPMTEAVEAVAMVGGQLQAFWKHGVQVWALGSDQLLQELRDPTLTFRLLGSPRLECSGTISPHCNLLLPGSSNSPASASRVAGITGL

As to `Cc1c(N2CCc3cnc(Nc4cnc5c(c4)CN(C)CC5)nc3C2)cnc2c1OCCO2` [Example 95, 7-(8-methyl-2,3-dihydro-[1,4]dioxino[2,3-b]pyridin-7-yl)-N-(6-methyl-5,6,7,8-tetrahydro-1,6-naphthyridin-3-yl)-5,6,7,8-tetrahydropyrido[3,4-d]pyrimidin-2-amine], the half-inhibitory concentration (IC50) (in general, the point on the concentration scale where inhibition reaches its midpoint) was under 100 nM.

In the case of `Cc1c(N2CCc3cnc(Nc4ccc(CCO)cc4)nc3C2)cnc2c1NCCO2` [Example 134, 2-{4-[(7-{8-methyl-1H,2H,3H-pyrido[2,3-b][1,4]oxazin-7-yl}-5H,6H,7H,8H-pyrido[3,4-d]pyrimidin-2-yl)amino]phenyl}ethan-1-ol], the IC50 was under 100 nM.

For the compound `COCCOCCS(=O)(=O)Cc1ccc(Nc2ncc3c(n2)CN(c2cnc4c(c2C)NCCO4)CC3)cc1` [Example 137, N-(4-{[2-(2-methoxyethoxy)ethanesulfonyl]methyl}phenyl)-7-{8-methyl-1H,2H,3H-pyrido[2,3-b][1,4]oxazin-7-yl}-5H,6H,7H,8H-pyrido[3,4-d]pyrimidin-2-amine], the IC50 was under 100 nM.

On to `Cc1c(N2CCc3cnc(Nc4ccnc(S(C)(=O)=O)c4)nc3C2)cnc2c1NCCO2` [Example 75, 7-(8-methyl-2,3-dihydro-1H-pyrido[2,3-b][1,4]oxazin-7-yl)-N-(2-(methylsulfonyl)pyridin-4-yl)-5,6,7,8-tetrahydropyrido[3,4-d]pyrimidin-2-amine], for which the half-inhibitory concentration (IC50) was under 100 nM.

In the case of `CN1CCc2ncc(Nc3ncc4c(n3)CN(c3ccccn3)CC4)cc2C1` [Example 129, 6-methyl-N-[7-(pyridin-2-yl)-5H,6H,7H,8H-pyrido[3,4-d]pyrimidin-2-yl]-5,6,7,8-tetrahydro-1,6-naphthyridin-3-amine], the 50% inhibitory concentration (IC50) lay in the range of 100 to 1000 nM.

Turning to `Cc1c(N2CCc3cnc(Nc4ccc(C(=O)N5CC[C@@H](N(C)C)C5)cc4)cc3C2)cnc2c1NCCO2` [Example 11, N-{4-[(3R)-3-(dimethylamino)pyrrolidine-1-carbonyl]phenyl}-6-{8-methyl-1H,2H,3H-pyrido[2,3-b][1,4]oxazin-7-yl}-5,6,7,8-tetrahydro-2,6-naphthyridin-3-amine], the IC50 was under 100 nM.

Regarding `COCCS(=O)(=O)Cc1ccc(Nc2cc3c(cn2)CCN(c2cnc4c(c2C)NCCO4)C3)cc1` [Example 172, N-{4-[(2-methoxyethanesulfonyl)methyl]phenyl}-6-{8-methyl-1H,2H,3H-pyrido[2,3-b][1,4]oxazin-7-yl}-5,6,7,8-tetrahydro-2,6-naphthyridin-3-amine], the IC50 was under 100 nM.

For the compound `Cc1c(N2CCc3cnc(Nc4cc5n(n4)CC(=O)N(C4CC4)CC5)cc3C2)cnc2c1NCCO2` [Example 141, 6-cyclopropyl-2-[(6-{8-methyl-1H,2H,3H-pyrido[2,3-b][1,4]oxazin-7-yl}-5,6,7,8-tetrahydro-2,6-naphthyridin-3-yl)amino]-4H,5H,6H,7H,8H-pyrazolo[1,5-d][1,4]diazepin-7-one], the concentration for half-maximal inhibition (IC50) was under 100 nM.

For the compound `COCc1cncc(N2CCc3cnc(Nc4ccc(C5CCOCC5)c(CO)c4)nc3C2)c1` [Example 78, (5-((7-(5-(methoxymethyl)pyridin-3-yl)-5,6,7,8-tetrahydropyrido[3,4-d]pyrimidin-2-yl)amino)-2-(tetrahydro-2H-pyran-4-yl)phenyl)methanol], the IC50 was in the range of 100 to 1000 nM.

Regarding `Cc1cnsc1N1CCc2cnc(Nc3cc4n(n3)CC(=O)N(C(C)C)CC4)nc2C1` [Example 86, 2-{[7-(4-methyl-1,2-thiazol-5-yl)-5H,6H,7H,8H-pyrido[3,4-d]pyrimidin-2-yl]amino}-6-(propan-2-yl)-4H,5H,6H,7H,8H-pyrazolo[1,5-d][1,4]diazepin-7-one; trifluoroacetic acid], the half-inhibitory concentration (IC50) is over 1000 nM.

In the case of `Cc1c(N2CCc3cnc(Nc4cc5n(n4)CC(=O)N(C)CC5)nc3C2)cnc2c1NCCO2` [Example 22, 6-methyl-2-[(7-{8-methyl-1H,2H,3H-pyrido[2,3-b][1,4]oxazin-7-yl}-5H,6H,7H,8H-pyrido[3,4-d]pyrimidin-2-yl)amino]-4H,5H,6H,7H,8H-pyrazolo[1,5-d][1,4]diazepin-7-one], the half-inhibitory concentration (IC50) lay in the range of 100 to 1000 nM.

As to `Cc1c(N2CCc3cnc(Nc4ccc(NC(=O)C5(C)COC5)nc4)nc3C2)cnc2c1NCCO2` [Example 8, 3-methyl-N-{5-[(7-{8-methyl-1H,2H,3H-pyrido[2,3-b][1,4]oxazin-7-yl}-5H,6H,7H,8H-pyrido[3,4-d]pyrimidin-2-yl)amino]pyridin-2-yl}oxetane-3-carboxamide], the half-maximal inhibitory concentration (IC50) lay within 100 to 1000 nM.

As to `Cc1cc(Nc2ncc3c(n2)CN(c2cnc4c(c2C)NCCO4)CC3)ccc1CC#N` [Example 149, 2-{2-methyl-4-[(7-{8-methyl-1H,2H,3H-pyrido[2,3-b][1,4]oxazin-7-yl}-5H,6H,7H,8H-pyrido[3,4-d]pyrimidin-2-yl)amino]phenyl}acetonitrile], the IC50 was under 100 nM.

Take `Cc1c(N2CCc3cnc(Nc4ccc(CN5CC(C)(O)C5)cc4)nc3C2)cnc2c1NCCO2` [Example 123, 3-methyl-1-(4-((7-(8-methyl-2,3-dihydro-1H-pyrido[2,3-b][1,4]oxazin-7-yl)-5,6,7,8-tetrahydropyrido[3,4-d]pyrimidin-2-yl)amino)benzyl)azetidin-3-ol]: the concentration for half-maximal inhibition (IC50) was 100 to 1000 nM.

For `Cc1cc(Nc2ncc3c(n2)CN(c2cnc4c(c2Cl)NCCO4)CC3)ccc1CS(C)(=O)=O` [Example 177, 7-{8-chloro-1H,2H,3H-pyrido[2,3-b][1,4]oxazin-7-yl}-N-[4-(methanesulfonylmethyl)-3-methylphenyl]-5H,6H,7H,8H-pyrido[3,4-d]pyrimidin-2-amine], the IC50 is under 100 nM.

With `Cc1cc(Nc2ncc3c(n2)CN(c2cnc4c(c2C)NCCO4)CC3)cnc1N(C)CCN1CCOCC1` [Example 43, N2,3-dimethyl-N5-(7-{8-methyl-1H,2H,3H-pyrido[2,3-b][1,4]oxazin-7-yl}-5H,6H,7H,8H-pyrido[3,4-d]pyrimidin-2-yl)-N2-[2-(morpholin-4-yl)ethyl]pyridine-2,5-diamine], the IC50 is under 100 nM.

Consider `Cc1c(N2CCc3cnc(Nc4ccc(CS(C)(=O)=O)cc4)nc3C2)cnc2oc(=O)[nH]c12` [Example 160, 6-(2-{[4-(methanesulfonylmethyl)phenyl]amino}-5H,6H,7H,8H-pyrido[3,4-d]pyrimidin-7-yl)-7-methyl-1H,2H-[1,3]oxazolo[5,4-b]pyridin-2-one], for which the half-inhibitory concentration (IC50) was under 100 nM.

For the compound `CN1CCc2ncc(Nc3ncc4c(n3)CN(c3cnn(C)c3)CC4)cc2C1` [Example 114, 7-(1-methyl-1H-pyrazol-4-yl)-N-(6-methyl-5,6,7,8-tetrahydro-1,6-naphthyridin-3-yl)-5,6,7,8-tetrahydropyrido[3,4-d]pyrimidin-2-amine], the half-maximal inhibitory concentration (IC50) was under 100 nM.

For the compound `Cn1ccc2c(N3CCc4cnc(Nc5ccc(CS(C)(=O)=O)cc5)nc4C3)ccnc21` [Example 146, N-[4-(methanesulfonylmethyl)phenyl]-7-{1-methyl-1H-pyrrolo[2,3-b]pyridin-4-yl}-5H,6H,7H,8H-pyrido[3,4-d]pyrimidin-2-amine], the IC50 is over 1000 nM.

In the case of `Cc1c(N2CCc3cnc(Nc4cnc5c(c4)CN(C)CC5)nc3C2)cnc2c1NC(=O)CO2` [Example 88, 8-methyl-7-(2-((6-methyl-5,6,7,8-tetrahydro-1,6-naphthyridin-3-yl)amino)-5,8-dihydropyrido[3,4-d]pyrimidin-7(6H)-yl)-1H-pyrido[2,3-b][1,4]oxazin-2(3H)-one], the IC50 was under 100 nM.

In the case of `Cc1c(N2CCc3cnc(Nc4ccc(CN5CCN(C)CC5)cc4)nc3C2)cnc2c1NCCO2` [Example 64, 7-{8-methyl-1H,2H,3H-pyrido[2,3-b][1,4]oxazin-7-yl}-N-{4-[(4-methylpiperazin-1-yl)methyl]phenyl}-5H,6H,7H,8H-pyrido[3,4-d]pyrimidin-2-amine], the half-maximal inhibitory concentration (IC50) was under 100 nM.

`CS(=O)(=O)Cc1ccc(Nc2ncc3c(n2)CN(c2cnc4cnccn24)CC3)cc1` [Example 136, 7-{imidazo[1,2-a]pyrazin-3-yl}-N-[4-(methanesulfonylmethyl)phenyl]-5H,6H,7H,8H-pyrido[3,4-d]pyrimidin-2-amine]: the IC50 is over 1000 nM.

For the compound `Cc1c(N2CCc3cnc(Nc4ccc5c(c4)CCN(C)CC5)nc3C2)cnc2c1NCCO2` [Example 62, 3-methyl-N-(7-{8-methyl-1H,2H,3H-pyrido[2,3-b][1,4]oxazin-7-yl}-5H,6H,7H,8H-pyrido[3,4-d]pyrimidin-2-yl)-2,3,4,5-tetrahydro-1H-3-benzazepin-7-amine], the IC50 was under 100 nM.

As to `COc1cccc(F)c1N1CCc2cnc(Nc3ccc(C4CCN(C)CC4)cc3)nc2C1` [Example 117, 7-(2-fluoro-6-methoxyphenyl)-N-(4-(1-methylpiperidin-4-yl)phenyl)-5,6,7,8-tetrahydropyrido[3,4-d]pyrimidin-2-amine], the IC50 was under 100 nM.

As to `Clc1c(N2CCc3cnc(Nc4ccc(-c5nnc(C6CC6)o5)cc4)nc3C2)cnc2c1NCCO2` [Example 159, 7-{8-chloro-1H,2H,3H-pyrido[2,3-b][1,4]oxazin-7-yl}-N-[4-(5-cyclopropyl-1,3,4-oxadiazol-2-yl)phenyl]-5H,6H,7H,8H-pyrido[3,4-d]pyrimidin-2-amine], the IC50 was under 100 nM.

(Values after patent publication US20240025922A1, “TETRAHYDROPYRIDO[3,4-d]PYRIMIDINES AS HPK1 INHIBITORS” (Merck Patent GmbH, priority 2022, published 2024).)
